# Test results: paper PMC11369174, “Proteome-scale characterisation of motif-based interactome rewiring by disease mutations” (Molecular Systems Biology, 2024)
# Legend:
# G3BP2 NTF2 [1] = target: T1, G3BP2 NTF2 (Homo sapiens, UniProt Q9UN86); assay: FP displacement assay, G3BP2 NTF2; details: FP displacement of FITC-N_SARS-CoV-2 (10 nM) complexed with domain (1-2x KD), 50 mM sodium phosphate pH 7.4, KD from IC50, technical triplets, n.b. = not binding within concentration range used
# T1 sequence (Q9UN86 1-139): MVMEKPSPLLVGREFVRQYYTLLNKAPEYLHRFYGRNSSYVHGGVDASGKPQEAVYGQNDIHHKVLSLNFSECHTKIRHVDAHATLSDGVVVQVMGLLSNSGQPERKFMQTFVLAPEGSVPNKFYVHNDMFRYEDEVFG
# CLTC NTD [2] = target: T2, CLTC NTD (Homo sapiens, UniProt Q00610); assay: FP displacement assay, CLTC NTD; type: binding; details: read-out: KD-values [µM] + SEM
# T2 sequence (Q00610 1-364): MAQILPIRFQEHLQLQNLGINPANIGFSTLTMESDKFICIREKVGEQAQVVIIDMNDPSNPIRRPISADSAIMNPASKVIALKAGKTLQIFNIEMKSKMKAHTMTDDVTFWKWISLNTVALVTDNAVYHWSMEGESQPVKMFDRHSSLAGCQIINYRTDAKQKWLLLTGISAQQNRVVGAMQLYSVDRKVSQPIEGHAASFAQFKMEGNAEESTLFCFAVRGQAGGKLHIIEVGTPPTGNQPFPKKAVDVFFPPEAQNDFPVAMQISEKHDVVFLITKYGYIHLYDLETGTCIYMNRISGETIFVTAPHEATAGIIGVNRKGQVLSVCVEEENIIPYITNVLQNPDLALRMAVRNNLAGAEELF
# Protocol: (§4) FP experiments were performed, as previously described (Kliche et al, [2021], [2023]), on an iD5 plate reader (Molecular devices) using black half-area non-binding 96-well plates (Corning). In order to calculate the FP signal in millipolarisation (mP), the FITC-labelled peptides were excited at 485 nm and the emitted light was measured at 535 nm in two different angles. For saturation experiments, a dilution series of the respective protein domains was generated (25 µL) and 10 nM fluorescein isothiocyanate (FITC)-labelled peptide (diluted in 50 mM sodium phosphate buffer pH 7.4, 0.05% Tween) were added in an end volume of 50 µL. […] For fitting the data, the buffer-corrected reduced values were plotted in GraphPad PRISM against the respective protein concentration and the KD-values were obtained by fitting against the quadratic equation (Gianni et al, [2005]).
# (§5) The buffer-corrected reduced values were subsequently plotted against the logarithmic unlabelled peptide concentration to derive the IC50 values by using the sigmoidal dose-response (x is logarithmic) fit in GraphPad PRISM and calculate the KD values as described previously (Nikolovska-Coleska et al, [2004]).
# G3BP1 NTF2 [3] = target: T3, G3BP1 NTF2 (Homo sapiens, UniProt Q13283); assay: GenVar_HD2 ProP-PD phage selection, G3BP1 NTF2; details: bait G3BP1 NTF2; from NGS counts of overlapping wild-type/mutant library peptide pairs; positive = mutation enhances, negative = disrupts binding
# T3 sequence (Q13283 1-139): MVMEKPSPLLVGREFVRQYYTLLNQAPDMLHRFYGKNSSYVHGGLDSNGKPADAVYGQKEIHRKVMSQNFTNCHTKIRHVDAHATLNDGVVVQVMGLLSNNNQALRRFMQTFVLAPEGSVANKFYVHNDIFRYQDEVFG
# Protocol: (§1) Phage display screens were performed according to previous reports (Benz et al, [2022]; Ali et al, [2020]) and for four consecutive selection rounds with five to six replicates per bait protein domain against the […] library.
# (§2) On the first day, both bait (15 µg in 100 µL PBS) and control protein domains (GST and MBP; 10 µg in 100 µL PBS) were immobilised on a 96-well MaxiSorb plate (Nunc) overnight in the cold room while shaking. Additionally, a 10 mL culture of Omnimax E. coli bacteria supplemented with 10 µg/mL tetracycline was incubated overnight at 37 °C at 200 rpm.
# (§3) First, protein solutions were removed from both control and bait protein domain plates and the wells were blocked with 0.5% BSA in PBS (200 µL/well) for 1 h in the cold room while shaking. After that, three Omnimax E. coli cultures were started supplemented with either 30 µg/mL kanamycin, 100 µg/mL carbenicillin and 10 µg/mL tetracycline and incubated at 37 °C and 200 rpm. The two first cultures served as a means to check for helper phage contamination (kanamycin) and phages with library phagemid contamination (carbenicillin) of the culture used for elution of the phages during selections. The tetracycline Omnimax E. coli culture was grown until OD at 600 nm reached 0.6–0.8. […]
# NEDD4 WW2 [4] = target: T4, NEDD4 WW2 (Homo sapiens, UniProt P46934); assay: FP displacement assay, NEDD4 WW2; type: binding; details: read-out: KD-values [µM] + SEM
# T4 sequence (P46934 765-803 limits assumed): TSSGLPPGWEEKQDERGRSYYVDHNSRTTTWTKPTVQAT
# Protocol: For saturation experiments, a dilution series of the respective protein domains was generated (25 µL) and 10 nM fluorescein isothiocyanate (FITC)-labelled peptide (diluted in 50 mM sodium phosphate buffer pH 7.4, 0.05% Tween) were added in an end volume of 50 µL. A control experiment titrating GST was performed for the binding of the NEDD4 WW2 domain, since the GST-tagged construct was used for affinity measurements.
# If the raw values indicated a FITC-contamination of the unlabelled peptide, the data was excluded and a new batch of peptide was ordered for remeasuring the affinity.
# NEDD4 WW2 [5] = target: T4, NEDD4 WW2; assay: GenVar_HD2 ProP-PD phage selection, NEDD4 WW2; details: bait NEDD4 WW2; from NGS counts of overlapping wild-type/mutant library peptide pairs; positive = mutation enhances, negative = disrupts binding
# Protocol: as §1, §2, §3
# KPNA4 ARM major = KPNA4 ARM major (Homo sapiens, UniProt O00629); assay: FP displacement assay, KPNA4 ARM major pocket; type: binding
# Chain of KPNA4 ARM major (O00629 68-487): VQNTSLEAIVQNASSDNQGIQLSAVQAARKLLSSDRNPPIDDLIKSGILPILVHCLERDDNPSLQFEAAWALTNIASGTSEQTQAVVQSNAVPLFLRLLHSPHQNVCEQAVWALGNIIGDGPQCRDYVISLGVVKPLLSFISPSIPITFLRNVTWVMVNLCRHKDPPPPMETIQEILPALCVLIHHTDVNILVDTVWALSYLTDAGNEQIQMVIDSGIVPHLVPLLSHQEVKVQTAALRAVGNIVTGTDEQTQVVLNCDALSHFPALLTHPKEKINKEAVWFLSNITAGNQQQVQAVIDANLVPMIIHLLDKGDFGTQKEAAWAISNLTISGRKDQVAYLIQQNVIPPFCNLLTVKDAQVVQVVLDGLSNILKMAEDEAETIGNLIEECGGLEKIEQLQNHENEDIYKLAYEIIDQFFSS
# Protocol: (§6) FP experiments were performed, as previously described (Kliche et al, [2021], [2023]), on an iD5 plate reader (Molecular devices) using black half-area non-binding 96-well plates (Corning). In order to calculate the FP signal in millipolarisation (mP), the FITC-labelled peptides were excited at 485 nm and the emitted light was measured at 535 nm in two different angles. For saturation experiments, a dilution series of the respective protein domains was generated (25 µL) and 10 nM fluorescein isothiocyanate (FITC)-labelled peptide (diluted in 50 mM sodium phosphate buffer pH 7.4, 0.05% Tween) were added in an end volume of 50 µL. A control experiment titrating GST was performed for the binding of the NEDD4 WW2 domain, since the GST-tagged construct was used for affinity measurements. For fitting the data, the buffer-corrected reduced values were plotted in GraphPad PRISM against the respective protein concentration and the KD-values were obtained by fitting against the quadratic equation (Gianni et al, [2005]).
# as §5
# KPNA4 ARM = assay: GenVar_HD2 ProP-PD phage selection, KPNA4 ARM; type: binding, human; details: bait KPNA4 ARM; from NGS counts of overlapping wild-type/mutant library peptide pairs; positive = mutation enhances, negative = disrupts binding
# KPNA4 ARM minor = KPNA4 ARM minor (Homo sapiens, UniProt O00629); assay: FP displacement assay, KPNA4 ARM minor pocket; type: binding
# Chain of KPNA4 ARM minor (O00629 68-487): as above
# Protocol: as §6, §5
# G3BP1 NTF2 [6] = target: T3, G3BP1 NTF2; details: FP displacement of FITC-N_SARS-CoV-2 (10 nM) complexed with domain (1-2x KD), 50 mM sodium phosphate pH 7.4, KD from IC50, technical triplets, n.b. = not binding within concentration range used
# CASK kinase domain [7] = target: T5, CASK kinase domain (Homo sapiens, UniProt O14936); assay: FP displacement assay, CASK kinase domain; details: FP displacement of FITC-PER2 (10 nM) complexed with domain (1-2x KD), 50 mM sodium phosphate pH 7.4, 100 mM NaCl, KD from IC50, technical triplets, n.b. = not binding within concentration range used
# T5 sequence (O14936 1-340): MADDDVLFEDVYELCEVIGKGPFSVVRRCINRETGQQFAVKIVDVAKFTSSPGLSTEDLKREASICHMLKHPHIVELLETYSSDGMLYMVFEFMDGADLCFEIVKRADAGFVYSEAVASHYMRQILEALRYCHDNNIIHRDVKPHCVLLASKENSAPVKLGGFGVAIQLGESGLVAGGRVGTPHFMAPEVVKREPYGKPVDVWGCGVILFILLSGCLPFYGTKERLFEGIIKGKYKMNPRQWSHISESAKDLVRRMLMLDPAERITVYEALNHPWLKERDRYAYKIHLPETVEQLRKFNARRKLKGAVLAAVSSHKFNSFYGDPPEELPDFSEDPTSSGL
# Protocol: as §6, §5
# USP7 MATH/TRAF = USP7 MATH/TRAF (Homo sapiens, UniProt Q93009); assay: FP displacement assay, USP7 MATH/TRAF; type: binding; details: read-out: KD-values [µM] + SEM
# Chain of USP7 MATH/TRAF (Q93009 53-206): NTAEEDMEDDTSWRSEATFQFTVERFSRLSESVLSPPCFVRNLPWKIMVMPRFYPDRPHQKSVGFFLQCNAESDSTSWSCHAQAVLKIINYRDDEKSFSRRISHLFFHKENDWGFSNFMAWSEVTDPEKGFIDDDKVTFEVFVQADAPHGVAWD
# Protocol: as §4, §5
# CASK kinase domain [8] = target: T5, CASK kinase domain; assay: GenVar_HD2 ProP-PD phage selection, CASK kinase domain; details: bait CASK kinase domain; from NGS counts of overlapping wild-type/mutant library peptide pairs; positive = mutation enhances, negative = disrupts binding
# Protocol: as §1, §2, §3
# CLTC NTD [9] = target: T2, CLTC NTD; assay: GenVar_HD2 ProP-PD phage selection, CLTC NTD; details: bait CLTC NTD; from NGS counts of overlapping wild-type/mutant library peptide pairs; positive = mutation enhances, negative = disrupts binding
# Protocol: as §1, §2, §3
# GABARAPL1 ATG8 [10] = target: T6, GABARAPL1 ATG8 (Homo sapiens, UniProt Q9H0R8); assay: FP displacement assay, GABARAPL1 ATG8; type: binding; details: read-out: KD-values [µM] + SEM
# T6 sequence (Q9H0R8 2-115): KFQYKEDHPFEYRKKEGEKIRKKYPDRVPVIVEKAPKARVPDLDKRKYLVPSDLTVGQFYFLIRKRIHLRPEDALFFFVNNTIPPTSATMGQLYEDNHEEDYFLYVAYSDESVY
# Protocol: as §4, §5
# MAP1LC3B ATG8 [11] = target: T7, MAP1LC3B ATG8 (Homo sapiens, UniProt Q9GZQ8); assay: FP displacement assay, MAP1LC3B ATG8; type: binding; details: for Kd: read-out: KD-values [µM] + SEM
# Protocol: as §6, §5
# GABARAPL1 ATG8 [12] = target: T6, GABARAPL1 ATG8; assay: GenVar_HD2 ProP-PD phage selection, GABARAPL1 ATG8; details: bait GABARAPL1 ATG8; from NGS counts of overlapping wild-type/mutant library peptide pairs; positive = mutation enhances, negative = disrupts binding
# Protocol: as §1, §2, §3
# MAP1LC3B ATG8 [13] = target: T7, MAP1LC3B ATG8; assay: GenVar_HD2 ProP-PD phage selection, MAP1LC3B ATG8; details: bait MAP1LC3B ATG8; from NGS counts of overlapping wild-type/mutant library peptide pairs; positive = mutation enhances, negative = disrupts binding
# Protocol: as §1, §2
# First, protein solutions were removed from both control and bait protein domain plates and the wells were blocked with 0.5% BSA in PBS (200 µL/well) for 1 h in the cold room while shaking. After that, three Omnimax E. coli cultures were started supplemented with either 30 µg/mL kanamycin, 100 µg/mL carbenicillin and 10 µg/mL tetracycline and incubated at 37 °C and 200 rpm. The two first cultures served as a means to check for helper phage contamination (kanamycin) and phages with library phagemid contamination (carbenicillin) of the culture used for elution of the phages during selections. The tetracycline Omnimax E. coli culture was grown until OD at 600 nm reached 0.6–0.8.
# Naïve phage libraries were precipitated (10 µL/well of bait protein domain) by diluting the library tenfold with PBS, adding one-fourth of 20% […] and 400 mM NaCl and incubating the mixture for 15 min on ice. Subsequently, phages were spun down for 15 min at 13,000 × g and resuspended in 0.5% BSA and 0.05% Tween-20 in PBS (100 µL/well). Control domain plates were washed four times with 200 µL 0.05% Tween-20 in PBS, 100 µL of the naïve phage library (10^11 phages/mL) were added to every well and the plates incubated for 1 h in the cold room while shaking. Next, protein bait domain plates were washed four times with 0.05% Tween-20 in PBS and the phage solution from the control protein plate was transferred to the respective wells on the protein bait domain plate. […]
# G3BP2 NTF2 [14] = target: T1, G3BP2 NTF2; assay: GenVar_HD2 ProP-PD phage selection, G3BP2 NTF2; details: bait G3BP2 NTF2; from NGS counts of overlapping wild-type/mutant library peptide pairs; positive = mutation enhances, negative = disrupts binding
# Protocol: as §1, §2, §3
compound,measurement,setting,value
Ac-DLLTCGQAQMNFPY-NH2 [BCL11A_44-56 wild-type],KD-values [µM] + SEM,G3BP2 NTF2 [1],n.b.
Ac-SGNLIDLYGNQGLPY-NH2 [MITF_258-271 wild-type],Kd,CLTC NTD [2],191 ± 27 µM
CC(=O)N[C@@H](CCC(=O)O)C(=O)N[C@@H](Cc1ccccc1)C(=O)N1CCC[C@H]1C(=O)N[C@H](C(=O)N1CCC[C@H]1C(=O)N[C@@H](Cc1ccccc1)C(=O)N[C@@H](Cc1ccccc1)C(=O)NCC(=O)N[C@@H](CO)C(=O)N[C@@H](CC(N)=O)C(=O)N[C@@H](CC(=O)O)C(=O)N[C@@H](Cc1ccc(O)cc1)C(=O)N[C@@H](CC(C)C)C(=O)N[C@@H](Cc1c[nH]c2ccccc12)C(=O)N[C@H](C(=O)N[C@@H](Cc1c[nH]cn1)C(N)=O)[C@@H](C)O)C(C)C [NSD1_1793-1808 L1797P],Mutation enrichment score,G3BP1 NTF2 [3],−7.4
Ac-PIPGTPPRNYDSLRLQ-NH2 [SCNN1B_611-626 P618R],Kd,NEDD4 WW2 [4],603 ± 73 µM
same,Mutation enrichment score,NEDD4 WW2 [5],−16
Ac-YLLDGPPNPERAKLSS-NH2 [CREBBP_5-19 K13E],Kd,KPNA4 ARM major; read-out: KD-values [µM] + SEM,860 ± 20 µM
same,Mutation enrichment score,KPNA4 ARM,−6
same,KD-values [µM] + SEM,"KPNA4 ARM minor; minor pocket, FP displacement of FITC-NCOR2 (10 nM) complexed with domain (1-2x KD), 50 mM sodium phosphate pH 7.4, KD from IC50, technical triplets, ± SEM, n.b. = not binding within concentration range used",n.b.
H3COC-QQSYLD(S/F)GIHSGATTT-NH2 [CTNNB1_27-42 wild-type],KD-values [µM] + SEM,G3BP1 NTF2 [6],no binding and n.b.
"H3COC-MSD(S/L)WVPNSASGQDPG-NH2 [FANCA_1-16 wild-type, wild-type FANCA peptide, residues 1-16]",KD-values [µM] + SEM,CASK kinase domain [7],n.b.
Ac-YISSSSTSTMPNSSQSS-NH2 [CHK2_38-53 wild-type],Kd,USP7 MATH/TRAF,3.1 ± 0.2 µM
Ac-YSGDTSPWHLSNVSST-NH2 [MAPT_717-731 R723W],Mutation enrichment score,CASK kinase domain [8],12
Ac-SGNLIDLCGNQGLPY-NH2 [MITF_258-271 Y265C],Mutation enrichment score,CLTC NTD [9],−9.8
same,Kd,CLTC NTD [2],206 ± 13 µM
Ac-PELWVAHRTAQHLSAT-NH2 [ZNF526_152-167 L160T],KD-values [µM] + SEM,"KPNA4 ARM major; major pocket, FP displacement of FITC-MYC (10 nM) complexed with domain (1-2x KD), 50 mM sodium phosphate pH 7.4, KD from IC50, ± SEM, n.b. = not binding within concentration range used",n.b.
same,Mutation enrichment score,KPNA4 ARM,−6.4
same,Kd,KPNA4 ARM minor; read-out: KD-values [µM] + SEM,395 ± 10 µM
Ac-QQSYLDFGIHSGATTT-NH2 [CTNNB1_27-42 S33F],Mutation enrichment score,G3BP1 NTF2 [3],9
Ac-DKDEWQSLDQNEDAFE-NH2 [BUB1_486-501 wild-type],Kd,GABARAPL1 ATG8 [10],5.5 ± 0.7 µM
same,Kd,MAP1LC3B ATG8 [11],7 ± 1 µM
CSCC[C@H](NC(C)=O)C(=O)N[C@@H](CO)C(=O)N[C@@H](CC(=O)O)C(=O)N[C@@H](CC(C)C)C(=O)N[C@@H](Cc1c[nH]c2ccccc12)C(=O)N[C@H](C(=O)N1CCC[C@H]1C(=O)N[C@@H](CC(N)=O)C(=O)N[C@@H](CO)C(=O)N[C@@H](C)C(=O)N[C@@H](CO)C(=O)NCC(=O)N[C@@H](CCC(N)=O)C(=O)N[C@@H](CC(=O)O)C(=O)N1CCC[C@H]1C(=O)NCC(N)=O)C(C)C [FANCA_1-16 S4L],Mutation enrichment score,CASK kinase domain [8],6
Ac-DKDEWQFLDQNEDAFE-NH2 [BUB1_486-501 S492F],Kd,GABARAPL1 ATG8 [10],< 0.3 µM
same,Mutation enrichment score,GABARAPL1 ATG8 [12],16
same,"increase in affinity, mutant vs wild-type peptide","MAP1LC3B ATG8 [11]; from FP displacement KD values, MAP1LC3B ATG8",four-fold increase in affinity
same,Kd,MAP1LC3B ATG8 [11],1.6 ± 0.1 µM
same,Mutation enrichment score,MAP1LC3B ATG8 [13],12
"H3COC-YSGDTSP(R/W)HLSNVSST-NH2 [MAPT_717-731 wild-type, wild-type MAPT peptide, residues 717-731]",KD-values [µM] + SEM,CASK kinase domain [7],no binding and n.b.
Ac-PIPGTRPPNYDSLRLQ-NH2 [SCNN1B_611-626 P616R],Kd,NEDD4 WW2 [4],80 ± 7 µM
same,Mutation enrichment score,NEDD4 WW2 [5],−12
Ac-DLLTFGQAQMNFPY-NH2 [BCL11A_44-56 C48F],Mutation enrichment score,CLTC NTD [9],12
same,Mutation enrichment score,G3BP2 NTF2 [14],10
